Assay results reported in ChEMBL document CHEMBL1127113, “Diaryl ether/carboxylic acid derivatives of LY255283: Receptor antagonists of leukotriene B4” (Bioorg Med Chem Lett, 1993).

Legend:
Leukotriene B4 receptor = Leukotriene B4 receptor (Homo sapiens, UniProt Q9NPC1+Q15722); experiment: Inhibition of specific binding of [3H]LTB4 to LTB4 receptor in human neutrophils; type: protein assay
[1] = molecular target: Leukotriene B4 receptor (Cavia porcellus); experiment: Inhibition of specific binding of [3H]-LTB4 to LTB4 receptor in guinea pig lung membranes
Homo sapiens = species: Homo sapiens; experiment: The compound was evaluated for its ability to inhibit LTB4-induced chemotaxis of human neutrophils; type: functional

Compound	IC50 (Leukotriene B4 receptor) [nM]	Ki [1] [nM]	IC50 (Homo sapiens) [nM]
CCc1cc(C(C)=O)c(O)cc1OCCCOc1ccc(Oc2ccc(C(=O)[O-])cc2)cc1.[Na+]	190	90	–
CCc1cc(C(C)=O)c(O)cc1OCCCOc1cccc(Oc2cccc(C(=O)[O-])c2)c1.[Na+]	460	140	–
CCCc1cc(Oc2ccc(C(=O)[O-])cc2)ccc1OCCCOc1cc(O)c(C(C)=O)cc1CC.[Na+]	330	1200	–
CCCc1cc(Oc2cccc(C(=O)[O-])c2)ccc1OCCCOc1cc(O)c(C(C)=O)cc1CC.[Na+]	160	256	–
CCc1cc(C(C)=O)c(O)cc1OCCCOc1cccc(Oc2ccccc2C(=O)[O-])c1.[Na+]	290	130	–

Further lines, results first:

IC50 (Leukotriene B4 receptor) [nM]	Ki [1] [nM]	IC50 (Homo sapiens) [nM]	Compound
24	39	790	CCCc1c(OCCCOc2cc(O)c(C(C)=O)cc2CC)cccc1Oc1ccccc1C(=O)[O-].[Na+]
130	244	1200	CCCc1c(OCCCOc2cc(O)c(C(C)=O)cc2CC)cccc1OCc1ccccc1C(=O)[O-].[Na+]
94	59	3100	CCCc1c(OCCCCOc2cc(O)c(C(C)=O)cc2CC)cccc1Oc1ccccc1C(=O)[O-].[Na+]
